The text below walks through data of patent publication US4210749A, “Substituted 1,2,4,5-tetrahydro-3H,3 benzazepines” (priority 1979, dated 1980).

The term LD50 denotes the dose at which mortality reaches 50%. Usually ED50 stands for the midpoint of the dose-response relation. The NOAEL is the highest dose or exposure tested at which no adverse effect was seen.

The nature of series [1]: I.P. symptomatology (highest tolerated dose, median lethal dose), Table IV. It is filed as in vivo. The note with it: in vivo, ip; for MTD: read-out: HTD (highest tolerated dose).
The subject of series [2] is phenylbenzoquinone writhing. In words: Phenylbenzoquinone (PBQ) writhing analgesia, Table IV. The note with it: sc; S.C.; marked * Median effective dose. Type of series: in vivo. For orientation: Writhing tests count abdominal constrictions after an irritant is injected.
The test system of the next series is sciatic block. In words: Local anesthetic sciatic block, Table IV. The note with it: 1%. It is filed as in vivo.
The nature of series [3]: Narcotic antagonism I.P., Table IV. It is filed as in vivo.
Series [4] in a line: Analgesic activity, hot plate method. Type of series: in vivo. In general terms: In hot-plate and tail-flick tests a longer latency is read as antinociception.
Series [5] can be described thus: Analgesic activity, writhing method. It is filed as in vivo.
For a further series, the system named is morphine analgesia. Type of series: in vivo, rat. The note with it: Table II.
The nature of series [6]: in vivo. The note with it: po.
Series [7] in a line: in vivo. The note with it: po. This is another data set of the same source.
Series [8] has as its system isolated segments of guinea pig ileum (acetylcholine). In words: Anticholinergic activity: block of acetylcholine in isolated segments of guinea pig ileum.
The subject of series [9] is isolated segments of guinea pig ileum (histamine). In words: Antihistaminic activity: block of histamine in isolated segments of guinea pig ileum.
The nature of series [10]: Analgesic activity in hot plate and writhing tests, overall comparison.
Series [11] can be described thus: Mouse tail stimulation (MST), Table IV. Type of series: in vivo. Also on record: unit not given here. The note with it: S.C.

Structures are written as SMILES. Counter-ions that a name gives are not always drawn.

Turning to `COc1ccc2c(c1)CC(C)N(C)CC2` (centres unmarked) [Example 39, 8-Methoxy-2,3-dimethyl-1,2,4,5-tetrahydro-3H,3-benzazepine hydrochloride], in [1], the LD50 was ~150 mg/kg and the MTD was determined as 10 mg/kg. For the same compound, in series [2], the ED50 was > 30 mg/kg. For the same compound, in the series on sciatic block, the “Local Anesthetic Sciatic Block” value was “Positive”. Besides, the “Narcotic Antagonism” value in series [3] is “Negative”.
Turning to `C=CCN1CCc2ccc(OC)cc2CC1` [Example 14, 3-Allyl-7-methoxy-1,2,4,5-tetrahydro-3H,3-benzazepine], the ED50 in series [4] (ip) is 42 mg/kg; in series [4] (po), > 178 mg/kg; in [5] (po), > 178 mg/kg; in series [5] (sc), > 56 mg/kg. Moreover, the “Narcotic antagonist potency relative to pentazocine” value with morphine analgesia is given as “about equipotent to pentazocine”. Further, the LD50 in series [1] is 80 mg/kg; in the series “in vivo [7]”, > 1000 mg/kg. The MTD in series [1] was 60 mg/kg. Also, the “Local Anesthetic Sciatic Block” value in the series on sciatic block is given as “Positive”. Moreover, the “Narcotic Antagonism” value in [3] is given as “Positive”. The compound further yielded an NOAEL in the series “in vivo [6]” of 178 mg/kg.
Take `COc1ccc2c(c1)CCN(CCc1ccccc1)CC2` [Example 24, 7-Methoxy-3-phenethyl-1,2,4,5-tetrahydro-3H,3-benzazepine]: the ED50 was 12 mg/kg in series [4] (ip), > 178 mg/kg in [4] (po), > 178 mg/kg in series [5] (po) and ~11 mg/kg in [5] (sc). Further, the “Narcotic antagonist potency relative to pentazocine” value with morphine analgesia was “about equipotent to pentazocine”. Besides, the “Conc. for 50% block of Acetylcholine” value in [8] is 74 μg/20 ml. For the same compound, the “Conc. for 50% block of Histamine” value in series [9] was 10 μg/20 ml. Also, the figures for the LD50 (in series [1]; in “in vivo [7]”) were > 200 mg/kg and > 1000 mg/kg, respectively. Further, in series [1], the MTD is > 50 mg/kg. The “Local Anesthetic Sciatic Block” value with sciatic block is “Positive”. In addition, the NOAEL in the series “in vivo [6]” was determined as 178 mg/kg. Also, in [10], the Analgesic activity ranking result was “most active compounds”. Also, the “Separation between effective dose and toxic or lethal doses” value in series [10] is “greatest separation between effective dose and toxic or lethal doses”.
In the case of `CC(C)=CCN1CCc2ccc(O)cc2CC1` [Example 4, 3-(3,3-Dimethylallyl)-7-hydroxy-1,2,4,5-tetrahydro-3H,3-benzazepine], the “Narcotic antagonist potency relative to pentazocine” value in the series with morphine analgesia is on record as “more potent antagonist than pentazocine”. The “Conc. for 50% block of Acetylcholine” value in series [8] was found to be 120 μg/20 ml. Besides, the “Conc. for 50% block of Histamine” value in series [9] is 76 μg/20 ml. For the same compound, in series [1], the LD50 is 96 mg/kg and the MTD came to 30 mg/kg. Further, the “MST (mouse tail stimulation)” value in series [11] was > 56. The “Local Anesthetic Sciatic Block” value in the series on sciatic block is on record as “Positive”. In series [3], the “Narcotic Antagonism” value is listed as “Positive”.
As to `COc1ccc2c(c1)CCN(CC=Cc1ccccc1)CC2` [Example 28, 7-Methoxy-3-(3-phenylallyl)-1,2,4,5-tetrahydro-3H,3-benzazepine], the 50% effective dose (ED50) in series [4] (ip) is > 18 mg/kg; in series [4] (po), 125 mg/kg; in [5] (po), 120 mg/kg; in series [5] (sc) it was > 18 mg/kg. Also, the “Narcotic antagonist potency relative to pentazocine” value in the series with morphine analgesia is given as “about equipotent to pentazocine”. In [1], this compound came in with an LD50 of 60 mg/kg. Further, the MTD in [1] is 20 mg/kg. The “MST (mouse tail stimulation)” value in [11] was found to be 10. Besides, the “Narcotic Antagonism” value in series [3] was “Positive”. For the same compound, in series [10] (oral vs parenteral), the “Analgesic efficacy by route of administration” value is listed as “active by the oral route”.
On to `COc1ccc2c(c1)CC(C)N(CCN1CCN(c3ccccc3)CC1)CC2` (centres unmarked) [Example 40, 8-Methoxy-2-methyl-3-[2-(4-phenyl-1-piperazinyl)-ethyl]-1,2,4,5-tetrahydro-3H,3-benzazepine dihydrochloride], for which, in series [1], the LD50 is > 100 mg/kg and the MTD stood at 30 mg/kg. The median effective dose (ED50) in series [2] was > 30 mg/kg. Further, in the series on sciatic block, the “Local Anesthetic Sciatic Block” value is reported as “Positive”. Besides, in [3], the “Narcotic Antagonism” value is recorded as “Negative”.
